Tests used:
MRL/lpr mice = experiment: Splenomegaly (spleen mass), MRL/lpr mice; assay type: in vivo, mouse
Protocol: FIG. 5 depicts splenomegaly for MRL/lpr mice across treatment groups for the study duration. MRL/lpr mice were treated as outlined in the legend. The spleen masses for all mice that survived until the end of the experiment are graphed. Each symbol represents the spleen weight for one mouse at 25 weeks of age.
Mice are tracked on an individual basis.
Vehicle alone is provided orally twice weekly (p.o.). Both proteasome inhibitors are suspended in the vehicle solution. […] In addition, urine proteinuria is determined for all animals.
Vehicle was 3% DMSO/10% Solutol/87% PBS.

NZM mice = experiment: Renal histopathology scoring (kidney IC-GN), NZM mice (Example 2); assay type: in vivo, mouse
Protocol: For histological analyses, the left kidney from each animal is removed and fixed in 10% buffered neutral formalin (EMD) for 48 hours on an orbital rocker at 25° C., then washed overnight with running dH2O and stored in 70% ethanol at 4° C. until ready to be processed. Kidney stains used for histological analyses included hematoxylin and eosin (H&E), Periodic Acid Schiff (PAS) and Trichrome stains (Wistar Institute, Philadelphia, Pa.). All 3 stained sections are used by the pathologist for scoring purposes. All histological scoring is performed blinded and by an independent board certified veterinary medical pathologist (Julie Engiles, VMD, DACVP). Multiple stains are used to determine score values. Images in FIG. 39 show worst affected area of section selected blindly by the pathologist.
Kidney IC-GN Scoring Method (Smith, Dong et al. 2007):
1. Glomerular cellularity—Score 1-5: Null, low, moderate, high, severe
2. Glomerular necrosis—Score 1-5: Null, low, moderate, high, severe
3. Glomerulosclerosis—Score 1-5: Null, low, moderate, high, severe
4. Interstitial infiltration—Score 1-5: Null, low, moderate, high, severe
5. Tubular atrophy—Score 1-5: Null, low, moderate, high, severe
6. Interstitial fibrosis—Score 1-5: Null, low, moderate, high, severe
7. Vasculitis—Score 1-5: Null, low, moderate, high, severe
Specific Pathologist Definitions: • Necrosis is defined by the presence of nuclear debris/pyknosis within the glomerular tuft indicative of “necrosis.” In many samples, this is a very mild, rare finding within only a very few segments of the glomerular tuft. Also consider effacement of the glomerular tuft by PAS positive, Trichrome negative material necrosis. • Glomerular sclerosis is defined by increased fibroplasia or fibrosis within the glomerular tuft or capsule. […] Most of the vascular changes are mild and could be considered “arteriosclerosis” characterized by proliferation of the smooth muscle cells, and hyalinization of the extracellular matrix. This change may reflect hypertension secondary to glomerular pathology. In very few animals is there overt “vasculitis.” Most inflammatory changes are within the walls of the blood vessels, with little to no damage to the endothelium, and no overt hemorrhage/fibrin leakage. Many also have perivascular rims of fibroblasts.

CC(C)C[C@H](NC(=O)[C@@H](NC(=O)c1cccc(-c2ccccc2)n1)[C@@H](C)O)B(O)O [COMPOUND A, [(1R)-1-[[(2S,3R)-3-hydroxy-2-[6-phenyl-pyridine-2-carbonyl)amino]-1-oxobutyl]amino]-3-methylbutylboronic acid]
splenomegaly decrease vs vehicle at the end of the study (MRL/lpr mice; 3 mg/kg iv twice weekly): 74%
EOS spleen mass, percent change vs vehicle (MRL/lpr mice; G1: 3 mg/kg iv, 1× wk): −67%
EOS spleen mass, percent change vs vehicle (MRL/lpr mice; G2: 3 mg/kg iv, 2× wk): −74%
EOS spleen mass, percent change vs vehicle (MRL/lpr mice; G3: 10 mg/kg po, 2× wk): −56%
p, glomerular cellularity (GC) vs G3 Bortezomib 0.3 mg/kg 1× wk (NZM mice; 3 mg/kg 1× wk): p < 0.01
p, glomerular cellularity (GC) vs G6 DEX 1.5 mg/kg 1× wk (NZM mice; 3 mg/kg 1× wk): p < 0.01
p, glomerular cellularity (GC) vs G7 Vehicle (NZM mice; 3 mg/kg 1× wk): p < 0.001
p, glomerular necrosis (GN) vs G3 Bortezomib 0.3 mg/kg 1× wk (NZM mice; 3 mg/kg 1× wk): p < 0.05
p, glomerular necrosis (GN) vs G6 DEX 1.5 mg/kg 1× wk (NZM mice; 3 mg/kg 1× wk): p < 0.01
p, glomerulosclerosis (GS) vs G3 Bortezomib 0.3 mg/kg 1× wk (NZM mice; 3 mg/kg 1× wk): p < 0.001
p, glomerulosclerosis (GS) vs G6 DEX 1.5 mg/kg 1× wk (NZM mice; 3 mg/kg 1× wk): p < 0.001
p, glomerulosclerosis (GS) vs G7 Vehicle (NZM mice; 3 mg/kg 1× wk): p < 0.01
p, interstitial fibrosis (IF) vs G3 Bortezomib 0.3 mg/kg 1× wk (NZM mice; 3 mg/kg 1× wk): p < 0.01
p, interstitial fibrosis (IF) vs G6 DEX 1.5 mg/kg 1× wk (NZM mice; 3 mg/kg 1× wk): p < 0.001
p, interstitial fibrosis (IF) vs G7 Vehicle (NZM mice; 3 mg/kg 1× wk): p < 0.01
p, interstitial infiltration (II) vs G6 DEX 1.5 mg/kg 1× wk (NZM mice; 3 mg/kg 1× wk): p < 0.01
p, interstitial infiltration (II) vs G7 Vehicle (NZM mice; 3 mg/kg 1× wk): p < 0.05
p, tubular atrophy (TA) vs G3 Bortezomib 0.3 mg/kg 1× wk (NZM mice; 3 mg/kg 1× wk): p < 0.001
p, tubular atrophy (TA) vs G6 DEX 1.5 mg/kg 1× wk (NZM mice; 3 mg/kg 1× wk): p < 0.001
p, tubular atrophy (TA) vs G7 Vehicle (NZM mice; 3 mg/kg 1× wk): p < 0.001
p, vasculitis (VA) vs G6 DEX 1.5 mg/kg 1× wk (NZM mice; 3 mg/kg 1× wk): p < 0.01
p, vasculitis (VA) vs G7 Vehicle (NZM mice; 3 mg/kg 1× wk): p < 0.01
p, glomerular cellularity (GC) vs G3 Bortezomib 0.3 mg/kg 1× wk (NZM mice; 3 mg/kg 2× wk): p < 0.01
p, glomerular cellularity (GC) vs G6 DEX 1.5 mg/kg 1× wk (NZM mice; 3 mg/kg 2× wk): p < 0.01
p, glomerular cellularity (GC) vs G7 Vehicle (NZM mice; 3 mg/kg 2× wk): p < 0.001
p, glomerular necrosis (GN) vs G3 Bortezomib 0.3 mg/kg 1× wk (NZM mice; 3 mg/kg 2× wk): p < 0.05
p, glomerular necrosis (GN) vs G6 DEX 1.5 mg/kg 1× wk (NZM mice; 3 mg/kg 2× wk): p < 0.01
p, glomerulosclerosis (GS) vs G3 Bortezomib 0.3 mg/kg 1× wk (NZM mice; 3 mg/kg 2× wk): p < 0.001
p, glomerulosclerosis (GS) vs G6 DEX 1.5 mg/kg 1× wk (NZM mice; 3 mg/kg 2× wk): p < 0.001
p, glomerulosclerosis (GS) vs G7 Vehicle (NZM mice; 3 mg/kg 2× wk): p < 0.01
p, interstitial fibrosis (IF) vs G3 Bortezomib 0.3 mg/kg 1× wk (NZM mice; 3 mg/kg 2× wk): p < 0.01
p, interstitial fibrosis (IF) vs G6 DEX 1.5 mg/kg 1× wk (NZM mice; 3 mg/kg 2× wk): p < 0.001
p, interstitial fibrosis (IF) vs G7 Vehicle (NZM mice; 3 mg/kg 2× wk): p < 0.01
p, interstitial infiltration (II) vs G6 DEX 1.5 mg/kg 1× wk (NZM mice; 3 mg/kg 2× wk): p < 0.01
p, interstitial infiltration (II) vs G7 Vehicle (NZM mice; 3 mg/kg 2× wk): p < 0.05
p, tubular atrophy (TA) vs G3 Bortezomib 0.3 mg/kg 1× wk (NZM mice; 3 mg/kg 2× wk): p < 0.01
p, tubular atrophy (TA) vs G6 DEX 1.5 mg/kg 1× wk (NZM mice; 3 mg/kg 2× wk): p < 0.001
p, tubular atrophy (TA) vs G7 Vehicle (NZM mice; 3 mg/kg 2× wk): p < 0.001
p, vasculitis (VA) vs G7 Vehicle (NZM mice; 3 mg/kg 2× wk): p < 0.05

Reference: patent US9340559B2, “Proteasome inhibitor delanzomib for use in the treatment of lupus” (Cephalon, Inc., priority 2011, dated 2016)
